Assay results: PMC6599804, “N^ɛ-acetyl lysine derivatives with zinc binding groups as novel HDAC inhibitors” (Royal Society Open Science, 2019)
Read-outs that look alike come from different tables or passages of the source.

Tests used:
K562 cells = assay: MTS cell proliferation assay, K562; format: cell-based, human
Experimental: (§1) Because of the great anti-tumour potential of HDAC inhibitors, we did the antiproliferative evaluation of 18c against K562 cells, A549 cells and HepG2 cells using MTS assay as previously described. […]
(§2) The rate of cell survival under the action of test substances was evaluated by an improved MTS assay as previously described. In brief, A549 (5000 cells / well) , HepG2 (5000 cells / well), HEK293 (5000 cells / well) and K562 (1 ×10^4 cells/well) cell lines were seeded into 96-well plates in 100 µL medium. After overnight incubation, each well was added with different […]
(§3) 48 hours 5ul of MTS reagent solution was added into each well and the cells were incubated for another 4 hours at 37℃ under 5% CO2 environment. The absorbance was measured at 490 nm in […]
(§4) a Microplate to determine the cell viability. The absorbance was directly proportional to the number of viable cells. All experiments were done in triplicate. […]
(§5) calculate and compare their selective index. […]
(§6) Unbound antibodies

[1] = system: cellular HDACs in A549 cells; assay: Western blotting of acetylation levels of histone H3 and α-tubulin in A549 cells; format: cell-based, human; conditions: 50, 100 and 200 µM for 24 h
Experimental: (§7) Therefore, hydroxamic acid 18c was engaged in western blotting analysis to evaluate the acetylation levels of histone H3 and α-tubulin.
(§8) Figure 3. […]
as §4
(§9) calculate and compare their selective index.
(§10) Respectively, A549 and K562 cells were harvested with three different concentrations of […]
(§11) DMEM with 10% FBS (fetal bovine serum) for 24 hours. DMSO was used as the control. Later the cell pellets were collected by centrifuge at 1000 rpm for 5 minutes and then washed by ice-cold PBS (phosphate-buffered saline) twice. The PBS solution was drained and the cell pellets were re-suspended with ice-cold cell lysate buffer (50 mM Tis-HCl PH=7.4, 150 mM NaCl, 1 mM EDTA, 10% glycerin, 1% tirtion 100 and protease inhibitors cocktail) and Vortex blending five times for 30 seconds each over a period of 30 minutes kept on ice. The samples were later centrifuged at 12,000×g for 10 minutes at 4 °C and the supernatants in each tube were collected and placed in a fresh tube kept on ice. BCA (bicinchoninic acid) assay was used to determine the total protein amount. […]
(§12) were removed by washing and a secondary antibody conjugated to an enzyme, a fluorophore was used for detection. The detected signal from the protein: antibody: antibody complex was […]

HepG2 cells = assay: MTS cell proliferation assay, HepG2; format: cell-based, human
Experimental: as §1, §2, §3, §4, §5, §6

HDACⅠ = assay: HDAC subtype selectivity assay with subtype substrate, HDACⅠ; format: biochemical, human; conditions: 1μM; Hela nuclear extract; substrate of corresponding subtype
Excerpt: (§13) against both tumor cells and normal cells, then calculate and compare their selective index.” […]
(§14) of Supporting Information.
(§15) Reponses to Reviewer 2’s comments
(§16) Reviewer 2 is also very positive about the manuscript. We thank the reviewer for the helpful comments and careful reading of the manuscript. Our changes and/or responses are detailed below.
(§17) Comment 1: “Should add some discussion about whether the synthesized compounds intend to be pan- or specific- HDAC inhibitors.”
(§18) S1 of Supporting Information.
(§19) Comment 2: “ The cellular data is just described for the acetylation level of tubulin which is only relevant […]
(§20) And then incubation at 37℃ for 1h, the mixture was stopped by the addition of 50 μL of Buffer B (200mM HCl/300 mM Acetic acid), fluorescence intensity was measured using a microplate reader at excitation and emission wavelengths of 360 nm and 460 nm. The inhibition ratios were calculated from the fluorescence intensity readings of tested wells relative to those of control wells, […]
(§21) The rate of cell survival under the action of test substances was evaluated by an improved MTS assay as previously described. […]
as §3

[2] = system: cellular HDACs in K562 cells; assay: Western blotting of acetylation levels of histone H3 and α-tubulin in K562 cells; format: cell-based, human; conditions: 50, 100 and 200 µM for 24 h
Experimental: as §7, §8, §4, §9, §10, §11, §12

[3] = system: HDACs (HeLa nuclear extract); assay: HDAC deacetylation inhibition assay, HeLa nuclear extract with BOC-Ac-Lys-AMC substrate; format: biochemical, human
Experimental: With these N^ɛ-acetyl lysine derivatives in hand (schemes 1–3), we then did the pilot screening for general HDAC inhibitory activity at a compound's concentration of 100 µM. All tested compounds were subjected to the inhibition assay against the HDAC deacetylation reaction by using a HeLa nuclear extract as a source of HDACs and BOC-Ac-Lys-AMC as a substrate.
HDACS inhibition assay in vitro
In vitro HDACs inhibition assays were conducted as previously described. In brief, 4 μL of […]
(1μL), then fluorogenic substrate Boc-Lys(acetyl)-AMC (100 μM) and Buffer A (50 mM Tis-HCl pH=8.0, 150 mM NaCl, 30 mM KCl, 10 mM MgCl2) were added. After incubation at 37℃ for 1h, […]
as §20
regression analysis of the concentration/inhibition data. All experiments were done in triplicate. […]

A549 cells = assay: MTS cell proliferation assay, A549; format: cell-based, human
Experimental: as §1, §2, §3, §4, §5, §6

HEK293 = assay: MTS cell proliferation assay, HEK293 (non-cancerous kidney cell); format: cell-based
Experimental: as §1, §2, §3, §4, §5, §6

HDAC8 = target: T1, HDAC8 (Homo sapiens, UniProt Q9BY41); assay: HDAC subtype selectivity assay with subtype substrate, HDAC8; format: biochemical; conditions: 1μM; Hela nuclear extract; substrate of corresponding subtype; read-out: HDAC Inhibition (%) HDAC8
T1 construct: Hela nuclear extract; endogenous in cells; host or cells: HeLa nuclear extract
T1 sequence (Q9BY41 1-377): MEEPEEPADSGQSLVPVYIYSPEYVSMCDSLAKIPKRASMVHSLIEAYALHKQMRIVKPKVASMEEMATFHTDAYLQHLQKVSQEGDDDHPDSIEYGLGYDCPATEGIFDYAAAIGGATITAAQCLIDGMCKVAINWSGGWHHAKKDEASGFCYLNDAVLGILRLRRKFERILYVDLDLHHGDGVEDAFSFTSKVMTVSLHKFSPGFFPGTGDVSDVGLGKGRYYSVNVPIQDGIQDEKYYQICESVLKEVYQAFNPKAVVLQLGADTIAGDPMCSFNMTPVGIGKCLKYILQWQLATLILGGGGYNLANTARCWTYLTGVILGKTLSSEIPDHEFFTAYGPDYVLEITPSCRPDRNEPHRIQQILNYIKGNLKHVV

HDACⅡa = assay: HDAC subtype selectivity assay with subtype substrate, HDACⅡa; format: biochemical, human; conditions: 1μM; Hela nuclear extract; substrate of corresponding subtype
Excerpt: as §13, §14, §15, §16, §17, §18, §19, §20, §21, §3

[4] = Homo sapiens, MTS assay, 48 hours
[5] = concentration range of 10–500 µM, MTS

IC50 (K562 cells; [4]): 41.2 ± 1.73 µM
IC50 (HepG2 cells; [4]): 158 ± 2.2 µM
IC50 ([3]; BOC-Ac-Lys-AMC substrate, read-out: IC50 values, HeLa nuclear extract): 0.5 ± 0.21 µM
IC50 ([3]; as restated in the conclusion, read-out: IC50 value): ~0.5 µM
IC50 (A549 cells; [4]): 134 ± 2.13 µM
inhibition at 1 µM (HDAC8): 38.3 ± 1.22%
Structure (SMILES): O=C(CCCCCCC(=O)NCCCC[C@H](NC(=O)OCc1ccccc1)C(=O)Nc1ccccc1)NO [Compound 18c]
concentration showing antiproliferative activity comparable to SAHA (1) at 10 µM (K562 cells; MTS): 50 to 100 µM
antiproliferative activity (K562 cells; [5]): dose-dependent manner
acetylation levels of histone H3 and α-tubulin [1]: dose-dependent increase
concentration showing antiproliferative activity comparable to SAHA (1) at 10 µM (HepG2 cells; MTS): 200 µM
antiproliferative activity (HepG2 cells; [5]): dose-dependent manner
HDAC Inhibition (%) HDACⅠ (HDACⅠ): 61.06±1.064%
acetylation levels of histone H3 and α-tubulin [2]: dose-dependent increase
HDAC inhibition (%) ([3]; compound at 100 µM, BOC-Ac-Lys-AMC substrate): 109.2 ± 0.5%
concentration showing antiproliferative activity comparable to SAHA (1) at 10 µM (A549 cells; MTS): 50 to 100 µM
antiproliferative activity (A549 cells; [5]): dose-dependent manner
IC50 (HEK293; Homo sapiens, HEK293, MTS assay, 48 hours, normal cells): > 500 µM
selectivity index (SI) (HEK293; normal cells (HEK293) versus tumor cells (K562, A549, HepG2) IC50s): 3.16~12.14
toxicity in non-cancerous kidney cell (HEK293) compared with SAHA (1) (HEK293; same concentrations (5 µM and 10 µM), MTS): less toxicity
HDAC Inhibition (%) HDACⅡa (HDACⅡa): 16.65±2.690%
